Results published in US20150322033A1, “ANTIBACTERIAL AGENT” (priority 2012, published 2015).
Values after ≈ are worked out from the molar mass of the structure shown. Where two headings read alike, the source gives them in different places.

Legend:
S. aureus Mu50 = assay: microbe, parasite or virus in culture; format: cell-based, Staphylococcus aureus; details: for MIC: Staphylococcus aureus; for MIC (mg/L) Mu50: Example 1, Tables 1 to 10
Protocol: (§1) S. aureus Mu50 (refer to Hiramatsu, K., Hanaki H., et al., J. Antimicrob. Chemother., 1997, 40(1), 135-6) or S. aureus FDA209P (ATCC 6538P) was cultured overnight at 37° C. in 4 mL of TBS (Tryptical Soy Broth, produced by Becton Dickinson) with shaking. After completion of the culture, the cells were suspended in fresh TBS to prepare a cell suspension showing an absorbance of 0.3 at 578 nm. Then, the cell suspension was diluted 500 times with CAMHB mentioned above.
(§2) CAMHB containing each test compound at each of the aforementioned concentrations was added to each well of a 96-well plate in a volume of 50 μL/well, the aforementioned cell suspension diluted 500 time was added to the well in a volume of 50 μL/well, and stationary culture was carried out overnight at 37° C.
(§3) MIC values (mg/L) of the flavones and quinolones against the strains were measured in the same manner as that of the measurement of MIC of Example 1, except that CAMHB containing each of the aforementioned flavones and quinolones prepared in Example 2 was used instead of CAMHB containing each of the test compounds.
(§4) MIC values of the flavones and quinolone for the strains were measured in the same manners as those of Example 1, except that S. aureus Mu50 NR-1 was also used as Staphylococcus aureus in addition to S. aureus FDA209P and S. aureus Mu50, cell suspensions of the strains were prepared.
(§5) In the same manner as that of Example 1, MIC values of M-246, M-21, J-Q21, and J-Q12.1 for Staphylococcus aureus were measured. M-246 and M-21 were obtained as commercial products, and as J-Q21 and J-Q12.1, those synthesized in Examples 6 and 7 were used.

[1] = system: S. aureus FDA209P (ATCC 6538P); assay: microbe, parasite or virus in culture; format: cell-based, Staphylococcus aureus; details: for MIC: Staphylococcus aureus
Protocol: as §1, §2, §3, §4, §5

[2] = MU50, read-out: MIC (mg/L) Mu50, Example 1, Tables 1 to 10
[3] = Example 1, Tables 1 to 10, read-out: MIC (mg/L) FDA209P

SMILES	MIC (S. aureus Mu50; [2])	MIC [1, 3]	MIC (mg/L) Mu50 (S. aureus Mu50)	MIC (mg/L) FDA209P ([1]; Example 1, Tables 1 to 10)	also measured
COc1cc(O)c(CN2CCOCC2)c2oc(-c3ccccc3)cc(=O)c12 [compound 50]	> 128 mg/L	> 128 mg/L			
COc1cc(O)c(CN2CCCCC2C)c2oc(-c3ccccc3)cc(=O)c12 (stereo not drawn) [compound 52]			>128 mg/L	>128 mg/L	
COc1cc(OC)c(-c2coc3cc(O)cc(O)c3c2=O)cc1OC [compound 98]	> 128 mg/L	128 mg/L (≈ 372 µM)			
O=C(O)COc1cc(O)c2c(=O)c(-c3ccc4c(c3)OCCO4)coc2c1 [compound 102]	128 mg/L (≈ 346 µM)	128 mg/L (≈ 346 µM)			
O=C1CC(c2cccc(O)c2)Oc2ccccc21 (stereo not drawn) [compound 124, 3′-Hydroxyflavanone]	128 mg/L (≈ 533 µM)	128 mg/L (≈ 533 µM)			
COc1cc(O)c(CN2CCN(C)CC2)c2oc(-c3ccccc3)cc(=O)c12 [compound 51]			128 mg/L (≈ 336 µM)	128 mg/L (≈ 336 µM)	
COc1ccc(-c2c(C(=O)O)oc3cc(OC)cc(OC)c3c2=O)cc1 [compound 92]	> 128 mg/L	> 128 mg/L			
O=c1cc(-c2ccc(O)cc2)oc2cccc(O)c12 [compound 70]	128 mg/L (≈ 503 µM)	128 mg/L (≈ 503 µM)			
O=c1cc(-c2ccccc2)oc2ccc3ccccc3c12 [compound 57]			128 mg/L (≈ 470 µM)	128 mg/L (≈ 470 µM)	
COc1c(O)cc2occ(-c3ccc(O)cc3)c(=O)c2c1O [compound 100]	128 mg/L (≈ 426 µM)	128 mg/L (≈ 426 µM)			
CCOc1ccc(-c2coc3cc(OCC)cc(OCC)c3c2=O)cc1 [compound 75]	> 128 mg/L	> 128 mg/L			
O=C(O)C1OC(Oc2ccc(-c3coc4cc(O)cc(O)c4c3=O)cc2)C(O)C(O)C1O (stereo not drawn) [compound 95]			>128 mg/L	128 mg/L (≈ 287 µM)	
O=c1cc(-c2ccc(O)c(O)c2)oc2c(C3OC(CO)C(O)C(O)C3O)c(O)cc(O)c12 (stereo not drawn) [compound 60]			>128 mg/L	>128 mg/L	
COc1ccc(-c2cc(=O)c3c(OC)cc(OC)cc3o2)cc1 [compound 18]			128 mg/L (≈ 410 µM)	128 mg/L (≈ 410 µM)	
CC1(C)C=Cc2c(c3c(c4c2OCC(c2ccc(O)cc2)C4=O)OC(C)(C)C=C3)O1 (stereo not drawn) [compound 105]	128 mg/L (≈ 316 µM)	128 mg/L (≈ 316 µM)			
COc1cc(OC)c2c(=O)c(OC)c(-c3ccc(OC)c(OC)c3)oc2c1 [compound 19]			>128 mg/L	>128 mg/L	
CC1(C)C=Cc2c(cc3oc(-c4ccc(O)cc4)cc(=O)c3c2O)O1 [compound 44]	> 128 mg/L	> 128 mg/L			
CC(=O)Oc1cc(OC(C)=O)c2c(=O)c(-c3ccc4c(c3)OCCCO4)c(C)oc2c1 [compound 109]	128 mg/L (≈ 302 µM)	128 mg/L (≈ 302 µM)			
O=c1c(OC2OC(CO)C(O)C(O)C2O)c(-c2ccc(O)cc2)oc2cc(O)cc(O)c12 (stereo not drawn) [compound 65]			>128 mg/L	>128 mg/L	
CCOC(=O)c1oc2cc(O)cc(O)c2c(=O)c1-c1ccc(OC)c(OC)c1 [compound 114]	> 128 mg/L	> 128 mg/L			
O=C(O)C1OC(Oc2ccc(-c3cc(=O)c4c(O)cc(O)cc4o3)cc2O)C(O)C(O)C1O (stereo not drawn) [compound 67]			128 mg/L (≈ 277 µM)	128 mg/L (≈ 277 µM)	
COc1cc(OC)c2c(=O)c(-c3ccc(OC4OC(CO)C(O)C(O)C4O)cc3)coc2c1 (stereo not drawn) [compound 85]			>128 mg/L	>128 mg/L	
COc1cc(-c2coc3cc(O)c(OC)c(O)c3c2=O)cc(O)c1OC [compound 93]	128 mg/L (≈ 355 µM)	128 mg/L (≈ 355 µM)			
COc1cc(OC)c2c(=O)cc(-c3cc(OC)c(OC)c(OC)c3)oc2c1 [compound 43]	> 128 mg/L	> 128 mg/L			

SMILES	MIC (S. aureus Mu50; [2])	MIC [1, 3]	MIC (mg/L) Mu50 (S. aureus Mu50)	MIC (mg/L) FDA209P ([1]; Example 1, Tables 1 to 10)	also measured
O=c1cc(-c2ccc(OC3OC(CO)C(O)C(O)C3O)cc2)oc2cc(O)cc(O)c12 (stereo not drawn) [compound 63]			128 mg/L (≈ 296 µM)	128 mg/L (≈ 296 µM)	
COc1cc(OC)c2c(=O)c(-c3ccc(O)cc3)coc2c1 [compound 121]	> 128 mg/L	> 128 mg/L			
O=c1c(O)c(-c2ccccc2S(=O)(=O)O)oc2ccccc12 [compound 54]	128 mg/L (≈ 402 µM)	128 mg/L (≈ 402 µM)			
COc1c(O)cc2oc(-c3ccc(O)cc3)c(OC)c(=O)c2c1O [compound 27]	> 128 mg/L	> 128 mg/L			
COc1ccc(-c2cc(=O)c3c(O)c(O)c(O)cc3o2)cc1 [compound 34]	128 mg/L (≈ 426 µM)	128 mg/L (≈ 426 µM)			
O=c1c(O)c(-c2ccccc2)oc2cc(O)c(O)c(O)c12 [M-21]					MIC Mu50 (S. aureus Mu50; Example 8, Table 17): 16 µg/mL (≈ 55.9 µM); MIC FDA209P ([1]; Example 8, Table 17): 64 µg/mL (≈ 224 µM)
COc1ccc(-c2cc(=O)c3c(OC)c(OC)c(OC)c(OC)c3o2)cc1 [compound 30]	> 128 mg/L	128 mg/L (≈ 344 µM)			
O=c1cc(-c2ccc(O)cc2)oc2ccccc12 [compound 68, 2-(4-hydroxyphenyl)chromen-4-one]	128 mg/L (≈ 537 µM)	128 mg/L (≈ 537 µM)			
Cc1c(O)cc2oc(-c3ccc(O)c(O)c3)c(O)c(=O)c2c1O [compound 5]			128 mg/L (≈ 405 µM)	128 mg/L (≈ 405 µM)	
COc1ccc(-c2coc3cc(OC(C)=O)cc(OC(C)=O)c3c2=O)cc1 [compound 72]	> 128 mg/L	> 128 mg/L			
COc1cc(OC)c2c(=O)cc(-c3ccccc3)oc2c1C1=COC(C)(C)C1=O [compound 46]	> 128 mg/L	128 mg/L (≈ 326 µM)			
O=c1c(O)c(-c2ccc(O)cc2O)oc2cc(O)cc(O)c12 [compound 2]			128 mg/L (≈ 424 µM)	>128 mg/L	
O=c1c(O)c(-c2ccc(O)cc2O)oc2cc(O)cc(O)c12 [compound 3]			>128 mg/L	>128 mg/L	
O=c1cc(-c2ccc(O)cc2)oc2c(C3CC3)c(O)cc(O)c12 [J-Q12.1, 8-Cyclopropyl-5,7-dihydroxy-2-(4-hydroxyphenyl)-chromen-4-one]					MIC (S. aureus Mu50; MU50, read-out: MIC Mu50, Example 8, Table 17): 8 mg/L (≈ 25.8 µM); MIC ([1]; Example 8, Table 17, read-out: MIC FDA209P): 8 mg/L (≈ 25.8 µM)
COc1cc(O)c(CN2CC(C)CC(C)C2)c2oc(-c3ccccc3)cc(=O)c12 (stereo not drawn) [compound 49]			>128 mg/L	128 mg/L (≈ 325 µM)	
O=c1c(O)c(-c2ccccc2)oc2ccccc12 [compound 12]			>128 mg/L	>128 mg/L	
COc1cc(O)c(CN(C)C)c2oc(-c3ccccc3)cc(=O)c12 [compound 47]	> 128 mg/L	128 mg/L (≈ 393 µM)			
COc1ccc(-c2cc(=O)c3c(O)c(OC)c(OC)cc3o2)cc1O [compound 40]	128 mg/L (≈ 372 µM)	128 mg/L (≈ 372 µM)			
COc1cc(O)c2c(=O)c(-c3ccc(OC4OC(CO)C(O)C(O)C4O)cc3)coc2c1 (stereo not drawn) [compound 78]			>128 mg/L	>128 mg/L	
CC(=O)Oc1cc(OC(C)=O)c2c(=O)c(-c3ccc4c(c3)OCCO4)coc2c1 [compound 104]	64 mg/L (≈ 161 µM)	128 mg/L (≈ 323 µM)			
O=c1cc(-c2ccccc2)oc2c1ccc1ccccc12 [compound 58]			128 mg/L (≈ 470 µM)	128 mg/L (≈ 470 µM)	
Cc1cc2c(cc1-c1c(C)oc3cc(O)cc(O)c3c1=O)OCCO2 [compound 87]			128 mg/L (≈ 376 µM)	64 mg/L (≈ 188 µM)	
COc1cc(OC)c2c(=O)c(-c3ccc(OC)c(OC)c3)coc2c1 [compound 111]	128 mg/L (≈ 374 µM)	> 128 mg/L			
COc1ccc(-c2oc3cc(OC)c(OC)c(O)c3c(=O)c2OC)cc1O [compound 33]	128 mg/L (≈ 342 µM)	> 128 mg/L			
